{"source": "patent US6756033B2", "about": "“Method for delivering benzindene prostaglandins by inhalation” (United Therapeutics Corporation, priority 1999, dated 2004)", "key": {"[1]": {"tested_on": "U44069 induced pulmonary hypertension", "assay_type": "in vivo, sheep", "excerpt": "(§1) The efficacy of benzindene prostaglandins, such as UT-15, for treating pulmonary hypertension can be assessed by determining the hemodynamics associated with pulmonary hypertension. In particular, measurements of pulmonary arterial pressure (PPA), left atrial pressure (PLA), central venous pressure (PCV), systemic arterial pressure (PSYS), heart rate (HR), and cardiac output (CO) are useful in determining the effects of benzindene prostaglandins delivered by inhalation or parenterally.\n(§2) Heart rate was determined by measuring the time (seconds) required for 25 heart beats to occur (t25) as indicated by the pulsations on the blood flow meter; the beats per minute (BPM) were calculated by the following equation: […]\n(§3) All pressure may be monitored by commercially available transducers, such as Model 1290A HEWLETT PACKARD™ transducer (Andover, Mass.), which is attached to VALIDYNE CD19A Carrier Dmod. Amplifiers (Northridge, Calif.). Cardiac output may be measured by a Transonic Systems T101 Ultrasonic Bloodflow Meter (Ithaca, N.Y.). The pressure and blood flow signals may be recorded on ASTROMED MT-9500 Stripchart Recorder (West Warwick, R.I.) and digitally recorded with a personal computer using Easy Data Acquisition Software (Nashville, Tenn.).\nSheep were used as the animal model of choice for these experiments for a number of reasons. First is the docile nature of sheep. They will stand quietly in metabolic cages without having to utilize tranquilizing drugs, which have the potential to complicate experimental results. Second, sheep are large enough to allow direct measurement of CO, PPA, PLA, PCV, and PSYS. Sheep are also large enough to allow direct aerosolization of substances into the lung via trachoestomy thereby preventing swallowing of drugs and thus eliminating a possible secondary route of administration of UT-15. Third, sheep can tolerate a great amount of instrumentation with little or no discomfort. Fourth, sheep have been utilized for several years as an animal model of pulmonary arterial hypertension and thus, there is a great amount of historical data with which to compare the results. The agent chosen to induce pulmonary arterial hypertension was a PGH2 analog, U44069 (9,11-dideoxy,9α,11α-epoxymethanoprostaglandin F2α). The reasons for using U44069 are that it is a very potent pulmonary vasoconstrictor, its characteristics are very similar to endogenously formed thromboxane A2, and it can be titrated to induce the desired degree of pulmonary vasoconstriction. U44069 was mixed with sterile normal saline immediately prior to being used and was protected from light by wrapping the solution with aluminum foil. The concentration of U44069 was adjusted such that a minimal flow rate of 0.8 ml per min was being infused into the sheep. This was done because more concentrated U44069 would have to be infused at very low rates and often causes “pulses” of U44069 due to the infusion characteristics of roller pumps. The U44069 pulses cause vasoconstriction “spikes” and thus would create induce a non-steady-state.\nSix yearling sheep (3 males, 3 females; 21-37 kg) were fasted 18-24 hours and initially anesthetized with a short acting barbiturate (thiopental) to allow intubation of the sheep. Halothane gas anesthesia (1.5-2.5%) was then used for the surgical procedures. Via a left thoracotomy, a Transonic blood flow probe was placed around the main pulmonary artery, silastic catheters placed in the main pulmonary artery and left atrium. After approximately 7 days the sheep were reanesthetized and the left carotid artery cannulated, a Cordis Introducer Sheath inserted in the left jugular vein, and a tracheotomy made. The sheep were allowed to recover for another 3-5 days prior to experimentation. […]"}, "blood platelets": {"tested_on": "blood platelets", "conditions": "cited from earlier work"}, "sheep [2]": {"tested_on": "sheep", "assay": "Intravenous and aerosolized UT-15 dose response effects on baseline hemodynamics", "assay_type": "in vivo", "conditions": "baseline conditions, aerosolized, 250, 500, and 100 ng per kg per min"}, "sheep [3]": {"tested_on": "sheep", "assay": "Intravenous and aerosolized UT-15 dose response effects on baseline hemodynamics", "assay_type": "in vivo", "conditions": "baseline conditions; for central venous pressure (PCV) relative to baseline / pulmonary arterial pressure (PPA) relative to baseline: any dose; for systemic arterial pressure (PSYS): any administration rate; for cardiac output (CO) relative to baseline: any delivery rate", "excerpt": "as §1, §2, §3\nInhalation solutions were prepared by combining 1.25 grams of Sodium Citrate (Hydrous), 0.125 Citric Acid (Anhydrous), 0.05 grams of Sodium Hydroxide (NF/BP), 0.125 grams of UT-15, and approximately 250 ml of Water for Injection according to the following steps.\nWorking solution was made by adding sterile saline to dilute the UT15 stock solution or placebo to the desired amount (depending on dose desired, weight of sheep, and duration of aerosolizing). This solution was then added to the nebulizer in volumes not exceeding 5 ml until entire amount was used.\nSix yearling sheep (3 males, 3 females; 21-37 kg) were fasted 18-24 hours and initially anesthetized with a short acting barbiturate (thiopental) to allow intubation of the sheep. Halothane gas anesthesia (1.5-2.5%) was then used for the surgical procedures. Via a left thoracotomy, a Transonic blood flow probe was placed around the main pulmonary artery, silastic catheters placed in the main pulmonary artery and left atrium. After approximately 7 days the sheep were reanesthetized and the left carotid artery cannulated, a Cordis Introducer Sheath inserted in the left jugular vein, and a tracheotomy made. The sheep were allowed to recover for another 3-5 days prior to experimentation. These sheep were used to allow measurement of pulmonary arterial pressure (PPA), left atrial pressure (PLA), central venous pressure (PCV), systemic arterial pressure (PSYS), heart rate (HR), and cardiac output (CO) after baseline measurements were made for a minimum of 30 minutes.\nTwo separate experiments were conducted to determine the dose response effects of intravenously infused UT-15 on baseline hemodynamics and aerosolized UT-15 on baseline hemodynamics. For the infusion experimental protocol, after a 30 minute baseline was established, UT-15 was infused intravenously at 3 rates (250, 500 and 1000 ng per kg per min). In three sheep, the infusion rates lasted for 30 minutes each, and for the other three sheep, the infusions were for 60 minutes each.\nThe aerosolized UT-15 protocol involved establishing a 30 minute baseline, then administering aerosolized UT-15 via a tracheostromy at rates of […] per kg of body weight per min and at an aerosolization rate of 0.28 ml/min. Again, three sheep were aerosolized for 30 minutes and the other three sheep were aerosolized for 60 minutes."}, "[4]": {"conditions": "U44069 iv infusion alone, 1 ng per kg per min"}}, "data": [{"smiles": "CCCCC[C@H](O)/C=C/C1C2COC(C2)C1C/C=C\\CCCC(=O)O", "note": "(stereo partly drawn) [U44069, 9,11-dideoxy,9α,11α-epoxymethanoprostaglandin F2α, reference compound]", "values": [{"measurement": "left atrial pressure", "setting": "[1]; [4]", "value": "did not alter left atrial pressure significantly"}, {"measurement": "pulmonary arterial pressure (PPA) relative to baseline", "setting": "[1]; [4]", "value": "significantly increased"}, {"measurement": "pulmonary vascular resistance (PVR)", "setting": "[1]; [4]", "value": "dramatic increase"}]}, {"smiles": "CCCCC[C@H](O)CC[C@@H]1[C@H]2Cc3cccc(OCC(=O)O)c3C[C@H]2C[C@H]1O", "note": "[UT-15, 9-deoxy-2′,9-alpha-methano-3-oxa-4,5,6-trinor-3,7-(1′,3′-interphenylene)-13,14-dihydro-prostaglandin F1]", "values": [{"measurement": "anti-aggregatory action on blood platelets", "setting": "blood platelets", "value": "potent anti-aggregatory action"}, {"measurement": "pulmonary vascular driving pressure (PPA minus PLA) versus baseline", "setting": "sheep [2]", "value": "significant"}, {"measurement": "central venous pressure (PCV) relative to baseline", "setting": "sheep [3]; aerosol", "value": "no statistical difference"}, {"measurement": "pulmonary vascular resistance (PVR)", "setting": "sheep [3]; aerosolized, all 3 delivery rates", "value": "significant decrease"}, {"measurement": "systemic arterial pressure (PSYS)", "setting": "sheep [3]; aerosolized", "value": "no significant effect"}, {"measurement": "cardiac output (CO) relative to baseline", "setting": "sheep [3]; aerosolized", "value": "no significant changes"}, {"measurement": "pulmonary arterial pressure (PPA) relative to baseline", "setting": "sheep [3]; aerosolized, not statistically different", "value": "general trend for PPA to decrease"}, {"measurement": "left atrial pressure (PLA) relative to baseline", "setting": "sheep [3]; aerosolized, mean values increased", "value": "neither intravenous nor aerosolized UT-15 caused PLA to significantly change"}, {"measurement": "pulmonary vascular resistance (PVR)", "setting": "sheep [3]; intravenous", "value": "no significant effect"}, {"measurement": "systemic arterial pressure (PSYS)", "setting": "sheep [3]; intravenous", "value": "no significant effect"}, {"measurement": "cardiac output (CO) relative to baseline", "setting": "sheep [3]; intravenous", "value": "no significant changes"}, {"measurement": "central venous pressure (PCV) relative to baseline", "setting": "sheep [3]; intravenous", "value": "no statistical difference"}, {"measurement": "pulmonary arterial pressure (PPA) relative to baseline", "setting": "sheep [3]; intravenous", "value": "same effects"}, {"measurement": "left atrial pressure (PLA) relative to baseline", "setting": "sheep [3]; intravenous, mean values decreased", "value": "neither intravenous nor aerosolized UT-15 caused PLA to significantly change"}, {"measurement": "potency and efficacy in attenuating chemically induced pulmonary hypertension (increase in PVR)", "setting": "[1]; aerosolized UT-15 compared to intravascularly administered UT-15", "value": "greater potency and efficacy"}, {"measurement": "central venous pressure", "setting": "[1]; during iv U44069, aerosol UT-15, only 500 ng per kg per min", "value": "different from the corresponding intravenous UT-15 infusion value"}, {"measurement": "pulmonary arterial pressure (PPA)", "setting": "[1]; during iv U44069, aerosolized UT-15, 500 and 1000 ng per kg per min", "value": "back to normal values"}, {"measurement": "pulmonary vascular resistance (PVR) relative to baseline PVR", "setting": "[1]; during iv U44069, aerosolized UT-15, any of the three delivery rates", "value": "no significant difference"}, {"measurement": "pulmonary arterial pressure (PPA) versus U44069 value", "setting": "[1]; during iv U44069, intravascular UT-15", "value": "decrease significantly"}, {"measurement": "pulmonary vascular resistance (PVR), U44069-induced increase", "setting": "[1]; during iv U44069, intravenously infused UT-15, 500 and 1000 ng per kg per min", "value": "significantly attenuated"}, {"measurement": "left atrial pressure versus U44069 value", "setting": "[1]; during iv U44069, intravenously infused UT-15, all three delivery rates", "value": "significant decrease"}, {"measurement": "peripheral effects (heart rate, cardiac output)", "setting": "[1]; in vivo", "value": "no apparent peripheral effects"}]}]}
